For one experiment, the system named is S. lutea. The experiment can be described thus: S. lutea bacterial inhibition (MIC, broth dilution). To be noted: Micrococcus luteus; 37°, 16-18 hours. The format is cell-based. The protocol: The assay for S. lutea inhibition was as follows. Water-soluble preparations were dissolved in brain heart infusion broth (Difco) to 1 mg./ml. Water-insoluble preparations were dissolved (or suspended) in dimethylformamide to 10 mg./ml. and diluted with brain heart broth to 1 mg./ml. Two-fold serial dilutions were made with broth starting with 1 mg./ml. with final volumes of 01. ml. per dilution. Overnight bacterial cultures were diluted 1:20,000 with brain heart and 0.1 ml. of diluted culture was added to each dilution of antibiotic (final total volume was 0.2 ml.). This was all done in plastic microtest plates (Microtest II Tissue Culture Plate, Bioquest). The plates were incubated at 37° for 16-18 hours and the minimum inhibitory concentrations (MIC) were recorded as the smallest concentration in which no visible growth occurred.
(In general: Dilution methods test growth across graded concentrations, often in twofold steps.)

Another experiment deals with AKR cells. The experiment can be described thus: AKR growth inhibition (AKR cells in culture). Type of experiment: cell-based. To be noted: 37° C, 3 days, concentration not given. The protocol:
The assay for inhibition of AKR cells in culture was as follows. Four ml. of cells (ca. 1×10^4 cells/ml.) were pipetted into sterilized plastic culture tubes with screw caps (16×125 mm.; Falcon Plastics, Oxnard, California). The experiment was initiated by adding 1.0 ml. of medium or drug at different concentrations and incubating at 37° C for 3 days. Cell growth was determined twice a day for 3 days. The percent inhibition was calculated from the controls (no drug).

In experiment [1] the test system is reverse transcriptase (RNA-directed DNA polymerase). The experiment in a line: Reverse transcriptase (RNA-directed DNA polymerase) inhibition. To be noted: concentration not given. The format is biochemical. An excerpt: The assay and work-up conditions for reverse transcriptase analysis were essentially those described by Brockman, et al., (Nature, 230, 249 (1971)), except for eliminating the phosphate from the washing solution (10% trichloroacetic acid).

The next experiment has as its target E. coli RNA polymerase (Escherichia coli, UniProt P0A8V2). The experiment in a line: Bacterial RNA polymerase inhibition. Type of experiment: biochemical. How it is done: The assay for bacterial RNA polymerase followed the procedure of Reusser (J. Bacterial., 105, 580 (1971)). Assay mixtures were prepared containing in a total volume of 0.25 ml.: Tris-hydrochloride buffer, pH 7.9, 5 μmoles; MgCl2, 1 μmole; mercaptoethanol, 3 μmoles; MnCl2, 0.25 μmole; guanosine triphosphate, cytidine triphosphate, uridine triphosphate, 0.1 μmole each; adenosine triphosphate 8-14C, 0.1 μmole containing 0.05 μCi; dAT, 0.2 units; polymerase, ~35 μg. The reaction mixtures were incubated at 30° C for 15 min.

A further experiment concerns B. subtilis. The experiment in a line: B. subtilis bacterial inhibition (paper disc, agar plate). The conditions noted are these: Bacillus subtilis, read-out: Zone (mm.) inhibition.
The test system of experiment [2] is DNA-directed DNA polymerase. The experiment in a line: DNA-directed DNA polymerase inhibition. The format is biochemical. To be noted: concentration not given. How it is done:
The assay and work-up conditions for DNA polymerase were essentially those described by Magee (Virology, 17, 604 (1962)). The reaction mixture contained […]: potassium phosphate (pH 7.4), 15; EDTA, 2; ATP, 0.05; Mg^++, 2.5; triphosphates of CdR, deoxyguanosine, and AdR, 0.01 each; TdR triphosphate-^3 H, 0.01 (100 mCi/mmol.); DNase-treated E. coli DNA, 0.2 mg.; and cell sonicate, 0.2 mg. protein in a total volume of 0.5 ml. After incubation at 37° C for up to 60 minutes with continual gentle shaking, the reactions were stopped by the addition of carrier DNA […] and PCA (to 0.5 N) containing 2% Celite. The pellet was washed with PCA, dissolved in 1 N NaOH, reprecipitated and washed with PCA, extracted with 0.15 ml. 0.5 N PCA (70°) for 20 minutes, and counted in 12 ml. of Diotol.

Converted amounts (≈) assume the structure as drawn.

Chain of E. coli RNA polymerase (P0A8V2 whole entry): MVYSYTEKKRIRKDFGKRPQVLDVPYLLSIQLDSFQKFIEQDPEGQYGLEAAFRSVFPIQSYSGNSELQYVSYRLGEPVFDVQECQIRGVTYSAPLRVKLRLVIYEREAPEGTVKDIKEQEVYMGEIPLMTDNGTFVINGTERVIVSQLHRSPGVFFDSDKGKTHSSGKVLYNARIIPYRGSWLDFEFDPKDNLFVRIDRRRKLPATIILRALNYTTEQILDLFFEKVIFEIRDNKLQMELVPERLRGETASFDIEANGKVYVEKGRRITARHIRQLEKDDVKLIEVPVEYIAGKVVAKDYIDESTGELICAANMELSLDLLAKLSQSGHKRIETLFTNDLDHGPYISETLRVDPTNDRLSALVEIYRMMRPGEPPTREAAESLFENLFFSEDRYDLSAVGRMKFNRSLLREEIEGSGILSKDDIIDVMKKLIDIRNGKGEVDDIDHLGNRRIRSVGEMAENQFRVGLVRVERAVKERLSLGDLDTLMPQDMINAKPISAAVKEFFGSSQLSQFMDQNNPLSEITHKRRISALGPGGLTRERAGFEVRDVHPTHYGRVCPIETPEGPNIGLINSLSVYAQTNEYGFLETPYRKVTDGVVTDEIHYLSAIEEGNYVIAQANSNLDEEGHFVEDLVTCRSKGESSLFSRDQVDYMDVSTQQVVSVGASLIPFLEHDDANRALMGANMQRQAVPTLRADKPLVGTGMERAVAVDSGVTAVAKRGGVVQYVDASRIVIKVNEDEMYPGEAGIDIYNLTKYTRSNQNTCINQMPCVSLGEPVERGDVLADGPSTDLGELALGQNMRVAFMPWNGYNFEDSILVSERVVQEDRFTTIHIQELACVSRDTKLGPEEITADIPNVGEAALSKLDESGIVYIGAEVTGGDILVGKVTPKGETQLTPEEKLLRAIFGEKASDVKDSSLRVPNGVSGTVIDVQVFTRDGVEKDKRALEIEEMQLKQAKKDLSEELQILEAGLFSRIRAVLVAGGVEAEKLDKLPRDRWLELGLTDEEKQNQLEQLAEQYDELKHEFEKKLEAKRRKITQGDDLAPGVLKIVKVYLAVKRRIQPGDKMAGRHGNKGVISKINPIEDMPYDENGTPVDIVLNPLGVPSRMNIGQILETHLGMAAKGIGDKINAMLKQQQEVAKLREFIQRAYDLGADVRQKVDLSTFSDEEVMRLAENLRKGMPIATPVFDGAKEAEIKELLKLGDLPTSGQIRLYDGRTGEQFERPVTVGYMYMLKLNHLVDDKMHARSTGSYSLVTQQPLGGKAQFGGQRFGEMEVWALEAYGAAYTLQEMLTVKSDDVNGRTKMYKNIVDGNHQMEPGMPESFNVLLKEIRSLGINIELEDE
Chain of E. coli RNA polymerase (P0A8T7 whole entry partner): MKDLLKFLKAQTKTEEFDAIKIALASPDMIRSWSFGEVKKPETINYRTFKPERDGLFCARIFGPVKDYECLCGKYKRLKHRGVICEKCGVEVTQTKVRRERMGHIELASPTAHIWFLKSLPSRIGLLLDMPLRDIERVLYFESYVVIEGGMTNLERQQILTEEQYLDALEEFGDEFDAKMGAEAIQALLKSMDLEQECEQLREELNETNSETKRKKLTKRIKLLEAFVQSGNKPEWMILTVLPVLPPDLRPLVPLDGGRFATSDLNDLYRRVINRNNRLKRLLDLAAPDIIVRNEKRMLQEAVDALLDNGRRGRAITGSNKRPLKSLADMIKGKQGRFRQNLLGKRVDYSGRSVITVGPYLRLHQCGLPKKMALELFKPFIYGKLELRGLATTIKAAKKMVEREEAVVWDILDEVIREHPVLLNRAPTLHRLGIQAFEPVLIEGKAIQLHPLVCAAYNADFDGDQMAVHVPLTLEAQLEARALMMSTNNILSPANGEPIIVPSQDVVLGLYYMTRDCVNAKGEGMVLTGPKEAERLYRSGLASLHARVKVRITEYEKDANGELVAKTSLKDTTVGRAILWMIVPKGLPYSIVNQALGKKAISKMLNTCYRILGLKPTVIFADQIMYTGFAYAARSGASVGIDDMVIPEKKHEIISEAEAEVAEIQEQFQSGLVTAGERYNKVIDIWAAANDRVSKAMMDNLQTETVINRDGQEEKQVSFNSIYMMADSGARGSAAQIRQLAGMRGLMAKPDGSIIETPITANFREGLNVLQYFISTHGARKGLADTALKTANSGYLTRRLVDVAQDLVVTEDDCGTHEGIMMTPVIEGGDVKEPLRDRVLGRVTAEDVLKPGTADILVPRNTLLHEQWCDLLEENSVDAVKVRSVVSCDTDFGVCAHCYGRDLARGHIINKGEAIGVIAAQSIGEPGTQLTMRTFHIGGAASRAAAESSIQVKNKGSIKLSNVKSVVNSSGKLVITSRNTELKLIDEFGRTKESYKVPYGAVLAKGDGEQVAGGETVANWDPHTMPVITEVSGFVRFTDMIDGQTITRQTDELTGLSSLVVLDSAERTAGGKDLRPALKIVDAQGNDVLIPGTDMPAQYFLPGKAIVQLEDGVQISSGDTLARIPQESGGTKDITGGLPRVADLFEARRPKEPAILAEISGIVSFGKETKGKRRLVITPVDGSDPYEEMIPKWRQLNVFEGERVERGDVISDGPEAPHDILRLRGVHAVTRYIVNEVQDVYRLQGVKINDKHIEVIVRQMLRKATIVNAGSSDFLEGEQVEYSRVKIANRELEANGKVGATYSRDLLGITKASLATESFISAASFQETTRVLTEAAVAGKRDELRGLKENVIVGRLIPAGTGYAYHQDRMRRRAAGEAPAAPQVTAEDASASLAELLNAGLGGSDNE
Chain of E. coli RNA polymerase (P0A7Z4 whole entry partner): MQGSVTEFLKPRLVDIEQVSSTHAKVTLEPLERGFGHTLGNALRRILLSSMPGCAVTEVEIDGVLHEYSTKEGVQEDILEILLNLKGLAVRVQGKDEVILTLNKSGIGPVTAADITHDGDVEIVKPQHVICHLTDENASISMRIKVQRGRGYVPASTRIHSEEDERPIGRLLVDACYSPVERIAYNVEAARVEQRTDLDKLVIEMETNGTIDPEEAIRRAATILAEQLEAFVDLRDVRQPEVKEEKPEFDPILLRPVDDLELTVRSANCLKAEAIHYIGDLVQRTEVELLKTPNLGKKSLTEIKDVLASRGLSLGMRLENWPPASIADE
Chain of E. coli RNA polymerase (P0A800 2-91 partner limits assumed): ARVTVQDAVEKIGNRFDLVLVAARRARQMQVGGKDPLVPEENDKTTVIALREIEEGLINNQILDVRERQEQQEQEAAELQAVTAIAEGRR
Procedure for B. subtilis: The assay for B. subtilis bacterial inhibition was obtained on plates with B. subtilis UC 564 spores in agar with the following composition per liter:
After autoclaving, 10 ml. of 20% glucose was added. The seeding rate was approximately 10^9 spores per liter. Test solutions were applied to 1/2-inch paper discs (Schleicher & Schuell 740E) with 0.08 ml. per disc.

Take `COC(=O)C(C(O)C(C)C=O)C(OC(C)=O)C(C)C(O)C(C)(O)C=C(C)C1=C2C(=C(C)C(=O)c3c(O)c(NC(=O)C(C)=CC=CC(C)=O)c(C)c(OC(C)=O)c32)OCO1` (centres unmarked) [Isostreptoval A]: 80 µg/mL (≈ 96.9 µM) was the least that counted as inhibitory in the experiment on S. lutea (MIC). Also, the % inhibition (as a rule, the change of the read-out against control, counted positive when it falls) in the experiment on AKR cells is 10.7%; in experiment [1], 7.8%; on E. coli RNA polymerase (0.1 μmole/ml.) it was 21%. The zone of inhibition at 250 µM with B. subtilis was found to be 16 mm.
`COC(=O)C(C(O)C(C)C=O)C(O)C(C)C(O)C(C)(O)C=C(C)C1=C2C(=C(C)C(=O)c3c(O)c(NC(=O)C(C)=CC=CC(C)=O)c(C)c(OC(C)=O)c32)OCO1` (centres unmarked) [Isostreptoval G]: the “% inhibition” value at E. coli RNA polymerase (0.1 μmole/ml.) amounted to 52%.
As to `CC(=O)C=CC=C(C)C(=O)Nc1c(C)c(OC(C)=O)c2c(c1O)C(=O)C(C)=C1OCOC(C(C)=CC(C)=O)=C12` [Prestreptovarone], the “% inhibition” value in experiment [1] is given as 60.1%; in experiment [2], 35.4%; on E. coli RNA polymerase (0.1 μmole/ml.) it was 0%.
As to `COC(=O)C1C(OC(C)=O)C(C)C(O)OC1C(C)C(O)C(C)(O)C=CC=C(C)C(=O)Nc1c(C)c(OC(C)=O)c2c(c1O)C(=O)C(C)=C1OCOC(C(C)=CC(C)=O)=C12` (centres unmarked) [Streptoval A], the MIC (usually the smallest concentration in the dilution series that meets the test's criterion for growth inhibition) against S. lutea came to 80 µg/mL (≈ 96.9 µM). The figures for the “% inhibition” value (in experiment [1]; on E. coli RNA polymerase (0.1 μmole/ml.)) were 100.0% and 35%, respectively. The zone of inhibition at 250 µM in the experiment on B. subtilis was determined as 17 mm.
As for `COC(=O)C1C(OC(C)=O)C(C)C(O)OC1C(C)C(O)C(C)C=CC=C(C)C(=O)Nc1c(C)c(OC(C)=O)c2c(c1O)C(=O)C(C)=C1OCOC(C(C)=CC(C)=O)=C12` (centres unmarked) [Streptoval B], in experiment [1], the “% inhibition” value is listed as 99.0%.
Same read-out and setting: next, `COC(=O)C1C(OC(C)=O)C(C)C(OC(C)=O)OC1C(C)C(OC(C)=O)C(C)C=CC=C(C)C(=O)Nc1c(C)c(OC(C)=O)c2c(c1O)C(=O)C(C)=C1OCOC(C(C)=CC(C)=O)=C12` (centres unmarked) [Streptoval C Triacetate-A]: 86.2%; `COC(=O)C(C(OC(C)=O)C(C)C=O)C(OC(C)=O)C(C)C(OC(C)=O)C(C)C=CC=C(C)C(=O)Nc1c(C)c(OC(C)=O)c2c(c1O)C(=O)C(C)=C1OCOC(C(C)=CC(C)=O)=C12` (centres unmarked) [Streptoval C Triacetate-B]: 97.3%.
Take `COC(=O)C1C(O)C(C)C(O)OC1C(C)C(O)C(C)C=CC=C(C)C(=O)Nc1c(C)c(OC(C)=O)c2c(c1O)C(=O)C(C)=C1OCOC(C(C)=CC(C)=O)=C12` (centres unmarked) [Streptoval C]: the figures for the “% inhibition” value (with AKR cells; in experiment [1]; in experiment [2]) were 2.1%, 84.0% and 9.2%, respectively. Moreover, in the experiment with B. subtilis, the zone of inhibition at 250 µM stood at 0 mm.
Consider `COC(=O)C1C(O)C(C)C(O)OC1C(C)C(=O)C(C)C=CC=C(C)C(=O)Nc1c(C)c(OC(C)=O)c2c(c1O)C(=O)C(C)=C1OCOC(C(C)=CC(C)=O)=C12` (centres unmarked) [Streptoval E], for which the minimum inhibitory concentration (MIC) in the experiment on S. lutea was found to be 75 µg/mL (≈ 97.9 µM). Also, the “% inhibition” value in experiment [1] turned out to be 95.7%; on E. coli RNA polymerase (0.1 μmole/ml.), 7%. Further, the zone of inhibition at 250 µM in the experiment on B. subtilis worked out at 0 mm.
`CC(=O)C=C(C)C1=C2C(=C(C)C(=O)c3c(O)c(NC(=O)C(C)=CC=CC(C)(O)C4OC(=O)C5C(O)C(C)C(O)OC5C4C)c(C)c(OC(C)=O)c32)OCO1` (centres unmarked) [Streptoval F]: in experiment [1], the “% inhibition” value turned out to be 8.3%.
Turning to `COC(=O)C1C(OC(C)=O)C(C)C(OC(C)=O)C(C)(O)C=CC=C(C)C(=O)Nc2c(C)c(OC(C)=O)c3c(c2O)C(=O)C(C)=C2OCOC(=C23)C(C)=CC(C)(O)C(OC(C)=O)C(C)C1OC(C)=O` (centres unmarked) [Streptovaricin A Triacetate], the “% inhibition” value in experiment [1] is listed as 76.0%.
Consider `COC(=O)C1C(OC(C)=O)C(C)C(OC(C)=O)C(C)C=CC=C(C)C(=O)Nc2c(C)c(OC(C)=O)c3c(c2O)C(=O)C(C)=C2OCOC(=C23)C(C)=CC(C)(O)C(OC(C)=O)C(C)C1OC(C)=O` (centres unmarked) [Streptovaricin C Tetra-acetate], for which the “% inhibition” value in experiment [1] is 80.0%.
Still for that read-out and setting: next, `COC(=O)C1C(OC(C)=O)C(C)C(OC(C)=O)C(C)C=CC=C(C)C(=O)Nc2c(C)c(OC(C)=O)c3c(c2O)C(=O)C(C)=C2OCOC(=C23)C(C)=CC(C)(O)C(O)C(C)C1OC(C)=O` (centres unmarked) [Streptovaricin C Triacetate]: 79.0%.
With `COC(=O)C1C(O)C(C)C(O)C(C)C=CC=C(C)C(=O)Nc2c(C)c(OC(C)=O)c3c(c2O)C(=O)C(C)=C2OCOC(=C23)C(C)=CC(C)(O)C(O)C(C)C1O` (centres unmarked) [Streptovaricin C, reference compound], the “% inhibition” value in the experiment with AKR cells came out at 8.9%; in experiment [1] it was 47.9%; in experiment [2], 0%; at E. coli RNA polymerase (0.01 μmole/ml. (Streptovaricin C)), 66%. In addition, in the experiment on B. subtilis, the zone of inhibition at 250 µM is 22 mm.
As for `CC(=O)C=C(C)C1=C2C(=C(C)C(=O)c3c(O)c(NC(=O)C(C)=O)c(C)c(OC(C)=O)c32)OCO1` [Streptovarone], the “% inhibition” value turned out to be 0.4% in the experiment with AKR cells, 59.4% in experiment [1], 12.2% in experiment [2] and 0% at E. coli RNA polymerase (0.1 μmole/ml.). In the experiment on B. subtilis, the zone of inhibition at 250 µM worked out at 0 mm.

The values above are taken from patent publication US4076725A, “Derivatives of streptovaricin ansamycins” (University of Illinois Foundation, priority 1976, dated 1978).
